Assay results reported in PubChem BioAssay (NCI).
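Results reflect a 48-hour exposure of cells in 96-well plates to compound at five concentrations. GI50: concentration for 50% inhibition of growth. The concentration for full growth arrest is given as TGI.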

How the values were obtained:
Experiment in all cases: inhibition of tumour cell growth, NCI panel, 48 h
HT29 colon = tested on: HT29 colon
KM12 colon = tested on: KM12 colon
786-0 renal = tested on: 786-0 renal
SK-OV-3 ovarian = tested on: SK-OV-3 ovarian
SK-MEL-28 melanoma = tested on: SK-MEL-28 melanoma
MDA-MB-231 breast = tested on: MDA-MB-231 breast
PC-3 prostate = tested on: PC-3 prostate
SR leukemia = tested on: SR leukemia
COLO 205 colon = tested on: COLO 205 colon
T-47D breast = tested on: T-47D breast
OVCAR-3 ovarian = tested on: OVCAR-3 ovarian
OVCAR-8 ovarian = tested on: OVCAR-8 ovarian
UACC-62 melanoma = tested on: UACC-62 melanoma
MALME-3M melanoma = tested on: MALME-3M melanoma
UACC-257 melanoma = tested on: UACC-257 melanoma
CCRF-CEM leukemia = tested on: CCRF-CEM leukemia
M14 melanoma = tested on: M14 melanoma
UO-31 renal = tested on: UO-31 renal
HOP-92 NSCLC = tested on: HOP-92 NSCLC
NCI-H23 lung = tested on: NCI-H23 lung
IGROV1 ovarian = tested on: IGROV1 ovarian
LOX IMVI melanoma = tested on: LOX IMVI melanoma
ACHN renal = tested on: ACHN renal
HL-60(TB) leukemia = tested on: HL-60(TB) leukemia
OVCAR-5 ovarian = tested on: OVCAR-5 ovarian
BT-549 breast = tested on: BT-549 breast
NCI-H460 lung = tested on: NCI-H460 lung
MDA-MB-435 = tested on: MDA-MB-435
CAKI-1 renal = tested on: CAKI-1 renal
DU-145 prostate = tested on: DU-145 prostate
MDA-MB-468 breast = tested on: MDA-MB-468 breast
SK-MEL-2 melanoma = tested on: SK-MEL-2 melanoma
TK-10 renal = tested on: TK-10 renal
HCT-15 colon = tested on: HCT-15 colon
SK-MEL-5 melanoma = tested on: SK-MEL-5 melanoma
SF-539 CNS = tested on: SF-539 CNS
SW-620 colon = tested on: SW-620 colon
HS 578T breast = tested on: HS 578T breast
NCI-H226 lung = tested on: NCI-H226 lung
OVCAR-4 ovarian = tested on: OVCAR-4 ovarian
SN12C renal = tested on: SN12C renal
RPMI-8226 leukemia = tested on: RPMI-8226 leukemia
HCC-2998 colon = tested on: HCC-2998 colon

SMILES: CN(C)CCCNC(=S)Nc1ccc(/C=C/c2ccc(Cl)cc2)cc1
- GI50 (HT29 colon): 2140 nM
- TGI (HT29 colon): 4720 nM
- GI50 (KM12 colon): 1820 nM
- TGI (KM12 colon): 3400 nM
- GI50 (786-0 renal): 1620 nM
- TGI (786-0 renal): 3360 nM
- GI50 (SK-OV-3 ovarian): 2030 nM
- TGI (SK-OV-3 ovarian): 4160 nM
- GI50 (SK-MEL-28 melanoma): 1790 nM
- TGI (SK-MEL-28 melanoma): 3200 nM
- GI50 (MDA-MB-231 breast): 1620 nM
- TGI (MDA-MB-231 breast): 3030 nM
- GI50 (PC-3 prostate): 1640 nM
- TGI (PC-3 prostate): 3240 nM
- GI50 (SR leukemia): 1940 nM
- TGI (SR leukemia): 5100 nM
- GI50 (COLO 205 colon): 1880 nM
- TGI (COLO 205 colon): 3640 nM
- GI50 (T-47D breast): 1880 nM
- TGI (T-47D breast): 4100 nM
- GI50 (OVCAR-3 ovarian): 1440 nM
- TGI (OVCAR-3 ovarian): 3110 nM
- GI50 (OVCAR-8 ovarian): 1980 nM
- TGI (OVCAR-8 ovarian): 4100 nM
- GI50 (UACC-62 melanoma): 1750 nM
- TGI (UACC-62 melanoma): 3170 nM
- GI50 (MALME-3M melanoma): 1750 nM
- TGI (MALME-3M melanoma): 3140 nM
- GI50 (UACC-257 melanoma): 1640 nM
- TGI (UACC-257 melanoma): 3240 nM
- GI50 (CCRF-CEM leukemia): 1630 nM
- TGI (CCRF-CEM leukemia): 3430 nM
- GI50 (M14 melanoma): 1770 nM
- TGI (M14 melanoma): 3620 nM
- GI50 (UO-31 renal): 1580 nM
- TGI (UO-31 renal): 2940 nM
- GI50 (HOP-92 NSCLC): 1350 nM
- TGI (HOP-92 NSCLC): 2990 nM
- GI50 (NCI-H23 lung): 2020 nM
- TGI (NCI-H23 lung): 4440 nM
- GI50 (IGROV1 ovarian): 1780 nM
- TGI (IGROV1 ovarian): 3310 nM
- GI50 (LOX IMVI melanoma): 1640 nM
- TGI (LOX IMVI melanoma): 3090 nM
- GI50 (ACHN renal): 1780 nM
- TGI (ACHN renal): 3190 nM
- GI50 (HL-60(TB) leukemia): 1670 nM
- TGI (HL-60(TB) leukemia): 3930 nM
- GI50 (OVCAR-5 ovarian): 1610 nM
- TGI (OVCAR-5 ovarian): 3090 nM
- GI50 (BT-549 breast): 2890 nM
- TGI (BT-549 breast): 8870 nM
- GI50 (NCI-H460 lung): 1540 nM
- TGI (NCI-H460 lung): 3010 nM
- GI50 (MDA-MB-435): 1580 nM
- TGI (MDA-MB-435): 3060 nM
- GI50 (CAKI-1 renal): 1540 nM
- TGI (CAKI-1 renal): 2960 nM
- GI50 (DU-145 prostate): 1750 nM
- TGI (DU-145 prostate): 3330 nM
- GI50 (MDA-MB-468 breast): 1640 nM
- TGI (MDA-MB-468 breast): 3070 nM
- GI50 (SK-MEL-2 melanoma): 1870 nM
- TGI (SK-MEL-2 melanoma): 3570 nM
- GI50 (TK-10 renal): 1870 nM
- TGI (TK-10 renal): 3560 nM
- GI50 (HCT-15 colon): 1530 nM
- TGI (HCT-15 colon): 3030 nM
- GI50 (SK-MEL-5 melanoma): 1720 nM
- TGI (SK-MEL-5 melanoma): 3090 nM
- GI50 (SF-539 CNS): 1680 nM
- TGI (SF-539 CNS): 3050 nM
- GI50 (SW-620 colon): 1670 nM
- TGI (SW-620 colon): 3140 nM
- GI50 (HS 578T breast): 1860 nM
- TGI (HS 578T breast): 4520 nM
- GI50 (NCI-H226 lung): 8410 nM
- TGI (NCI-H226 lung): 38200 nM
- GI50 (OVCAR-4 ovarian): 1920 nM
- TGI (OVCAR-4 ovarian): 4350 nM
- GI50 (SN12C renal): 1680 nM
- TGI (SN12C renal): 3130 nM
- GI50 (RPMI-8226 leukemia): 2550 nM
- TGI (RPMI-8226 leukemia): 7330 nM
- GI50 (HCC-2998 colon): 1640 nM
- TGI (HCC-2998 colon): 3140 nM
